According to ChEMBL document CHEMBL5338751, “Discovery of the First-in-Class Intestinal Restricted FXR and FABP1 Dual Modulator ZLY28 for the Treatment of Nonalcoholic Fatty Liver Disease” (J Med Chem, 2023):
pEC50, pIC50: −log10 of the molar value. Active and inactive are the calls of the source. No cut-off for these calls is given here.

What was measured:
Progesterone receptor = Progesterone receptor (Homo sapiens, UniProt P06401); experiment: Activation of Gal-DBD and NHRLBD fused PR (unknown origin) transfected in African green monkey CV-1 cells by luciferase reporter assay; assay type: cell-based
Chain of Progesterone receptor (P06401 whole entry, the tested form may be a part): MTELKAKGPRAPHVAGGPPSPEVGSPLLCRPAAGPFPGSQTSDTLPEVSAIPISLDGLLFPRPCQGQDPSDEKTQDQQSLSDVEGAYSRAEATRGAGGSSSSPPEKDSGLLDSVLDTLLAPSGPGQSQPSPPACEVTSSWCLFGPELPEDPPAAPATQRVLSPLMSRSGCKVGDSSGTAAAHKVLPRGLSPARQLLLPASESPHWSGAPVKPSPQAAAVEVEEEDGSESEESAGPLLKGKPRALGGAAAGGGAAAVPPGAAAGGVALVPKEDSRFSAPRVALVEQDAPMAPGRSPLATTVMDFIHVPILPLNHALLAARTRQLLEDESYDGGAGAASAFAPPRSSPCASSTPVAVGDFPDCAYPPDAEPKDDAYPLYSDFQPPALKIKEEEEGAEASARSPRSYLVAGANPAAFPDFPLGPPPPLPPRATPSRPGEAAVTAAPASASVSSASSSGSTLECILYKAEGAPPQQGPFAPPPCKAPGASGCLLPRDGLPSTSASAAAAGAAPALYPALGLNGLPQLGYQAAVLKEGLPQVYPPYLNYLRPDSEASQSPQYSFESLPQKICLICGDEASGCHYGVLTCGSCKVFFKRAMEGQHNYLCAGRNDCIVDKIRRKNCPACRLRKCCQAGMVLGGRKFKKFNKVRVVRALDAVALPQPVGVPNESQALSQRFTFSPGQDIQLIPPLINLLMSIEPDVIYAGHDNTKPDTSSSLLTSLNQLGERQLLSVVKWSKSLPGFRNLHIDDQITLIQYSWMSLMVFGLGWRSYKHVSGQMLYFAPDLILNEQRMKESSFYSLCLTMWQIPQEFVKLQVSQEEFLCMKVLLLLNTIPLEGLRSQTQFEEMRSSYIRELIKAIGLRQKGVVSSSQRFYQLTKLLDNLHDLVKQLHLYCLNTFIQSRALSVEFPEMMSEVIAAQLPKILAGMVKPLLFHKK

[1] = Subacute toxicity in ICR mouse assessed as changes in food intake at 500 mg/kg/day, po administered for 14 days; assay type: organism-based; conditions: in vivo, 336 h, time 14 day
[2] = Subacute toxicity in ICR mouse assessed as changes in organ to body weight ratio at 500 mg/kg/day, po administered for 14 days; assay type: organism-based; conditions: in vivo, 336 h, time 14 day
Mus musculus [3] = experiment: Antioxidant activity in western diet and CCl4-induced nonalcoholic steatohepatitis C57BL/6 mouse model assessed as increase in glutathione peroxidase level at 20 mg/kg, po administered for 12 weeks starting from week 8 and change in dose for every 5 days; assay type: functional, organism-based; conditions: time 4.0 weeks
[4] = Subacute toxicity in ICR mouse assessed as animal death at 500 mg/kg/day, po administered for 14 days; assay type: organism-based; conditions: in vivo, 336 h, time 14 day
Mus musculus [5] = experiment: Anti-NASH activity in western diet and CCl4-induced nonalcoholic steatohepatitis C57BL/6 mouse assessed as alleviation of lobular inflammation at 20 mg/kg, po administered for 12 weeks starting from week 8 and change in dose for every 5 days; assay type: functional, organism-based; conditions: time 4.0 weeks
Mus musculus [6] = experiment: Anti-NASH activity in western diet and CCl4-induced nonalcoholic steatohepatitis C57BL/6 mouse assessed as reduction in MCP-1 level at 20 mg/kg, po administered for 12 weeks starting from week 8 and change in dose for every 5 days by ELISA; assay type: functional, organism-based; conditions: time 4.0 weeks
[7] = Inhibition of PPARbeta/delta (unknown origin) transfected in HepG2 cells incubated for 18 hrs in presence of GW0742 by dual luciferase reporter assay; conditions: Homo sapiens, HepG2, 18 h
Mus musculus [8] = experiment: Anti-NASH activity in western diet and CCl4-induced nonalcoholic steatohepatitis C57BL/6 mouse assessed as downregulation of TNFalpha expression level at 20 mg/kg, po administered for 12 weeks starting from week 8 and change in dose for every 5 days by ELISA; assay type: functional, organism-based; conditions: time 4.0 weeks
[9] = Subacute toxicity in ICR mouse assessed as changes in body weight at 500 mg/kg/day, po administered for 14 days; assay type: organism-based; conditions: in vivo, 336 h, time 14 day
[10] = molecular target: Free fatty acid receptor 1 (Homo sapiens, UniProt O14842); experiment: Agonist activity at human FFA1 stably expressed in CHO cells assessed as intracellular calcium flux by FLIPR assay; assay type: functional, cell-based
Chain of Free fatty acid receptor 1 (O14842 whole entry): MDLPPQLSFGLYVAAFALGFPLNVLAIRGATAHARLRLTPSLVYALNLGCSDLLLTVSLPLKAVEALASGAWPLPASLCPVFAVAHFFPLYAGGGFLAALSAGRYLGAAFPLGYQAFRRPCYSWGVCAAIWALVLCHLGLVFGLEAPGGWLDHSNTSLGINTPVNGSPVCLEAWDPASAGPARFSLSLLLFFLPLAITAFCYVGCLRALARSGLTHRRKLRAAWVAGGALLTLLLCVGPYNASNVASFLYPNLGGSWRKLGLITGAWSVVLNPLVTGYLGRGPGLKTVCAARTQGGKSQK

[11] = Metabolic stability in rhesus monkey liver microsomes assessed as parent compound remaining incubated for 1 hr by LC-MS analysis; assay type: ADME, Macaca mulatta, Microsome; conditions: read-out: Stability
[12] = molecular target: T1, Peroxisome proliferator-activated receptor alpha (Homo sapiens, UniProt Q07869); experiment: Inhibition of pBIND-PPARalpha (unknown origin) transfected in HepG2 cells incubated for 18 hrs in presence of […] by dual luciferase reporter assay; assay type: cell-based
T1 sequence (Q07869 whole entry): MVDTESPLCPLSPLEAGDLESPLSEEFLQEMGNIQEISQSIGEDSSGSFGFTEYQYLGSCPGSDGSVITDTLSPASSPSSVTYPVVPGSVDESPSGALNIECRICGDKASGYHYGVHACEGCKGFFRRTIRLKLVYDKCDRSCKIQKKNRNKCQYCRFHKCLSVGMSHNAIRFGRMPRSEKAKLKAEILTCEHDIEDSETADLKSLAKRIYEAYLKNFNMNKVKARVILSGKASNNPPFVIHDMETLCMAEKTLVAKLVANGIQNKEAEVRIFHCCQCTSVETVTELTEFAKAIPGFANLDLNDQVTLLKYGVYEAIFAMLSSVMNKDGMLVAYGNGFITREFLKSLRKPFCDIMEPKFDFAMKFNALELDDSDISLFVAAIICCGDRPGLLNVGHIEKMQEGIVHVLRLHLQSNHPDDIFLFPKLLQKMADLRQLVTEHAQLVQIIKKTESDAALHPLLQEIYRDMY

[13] = molecular target: Retinoic acid receptor gamma (Homo sapiens, UniProt P13631); experiment: Activation of Gal-DBD and NHRLBD fused RARgamma (unknown origin) transfected in African green monkey CV-1 cells by luciferase reporter assay; assay type: cell-based
Chain of Retinoic acid receptor gamma (P13631 whole entry, the tested form may be a part): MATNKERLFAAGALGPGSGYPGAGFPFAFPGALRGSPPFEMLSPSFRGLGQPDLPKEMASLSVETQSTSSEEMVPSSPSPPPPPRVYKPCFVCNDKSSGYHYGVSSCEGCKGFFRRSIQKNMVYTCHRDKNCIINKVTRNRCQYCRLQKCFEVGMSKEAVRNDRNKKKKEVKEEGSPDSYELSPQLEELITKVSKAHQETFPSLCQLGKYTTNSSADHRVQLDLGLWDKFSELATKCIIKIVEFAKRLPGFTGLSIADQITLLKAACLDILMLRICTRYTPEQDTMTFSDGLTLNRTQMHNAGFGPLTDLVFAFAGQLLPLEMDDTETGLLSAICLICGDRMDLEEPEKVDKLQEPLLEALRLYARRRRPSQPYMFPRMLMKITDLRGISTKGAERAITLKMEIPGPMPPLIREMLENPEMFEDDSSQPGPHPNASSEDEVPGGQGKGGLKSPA

[14] = molecular target: Mineralocorticoid receptor (Homo sapiens, UniProt P08235); experiment: Activation of Gal-DBD and NHRLBD fused MR (unknown origin) transfected in African green monkey CV-1 cells by luciferase reporter assay; assay type: cell-based
Chain of Mineralocorticoid receptor (P08235 whole entry, the tested form may be a part): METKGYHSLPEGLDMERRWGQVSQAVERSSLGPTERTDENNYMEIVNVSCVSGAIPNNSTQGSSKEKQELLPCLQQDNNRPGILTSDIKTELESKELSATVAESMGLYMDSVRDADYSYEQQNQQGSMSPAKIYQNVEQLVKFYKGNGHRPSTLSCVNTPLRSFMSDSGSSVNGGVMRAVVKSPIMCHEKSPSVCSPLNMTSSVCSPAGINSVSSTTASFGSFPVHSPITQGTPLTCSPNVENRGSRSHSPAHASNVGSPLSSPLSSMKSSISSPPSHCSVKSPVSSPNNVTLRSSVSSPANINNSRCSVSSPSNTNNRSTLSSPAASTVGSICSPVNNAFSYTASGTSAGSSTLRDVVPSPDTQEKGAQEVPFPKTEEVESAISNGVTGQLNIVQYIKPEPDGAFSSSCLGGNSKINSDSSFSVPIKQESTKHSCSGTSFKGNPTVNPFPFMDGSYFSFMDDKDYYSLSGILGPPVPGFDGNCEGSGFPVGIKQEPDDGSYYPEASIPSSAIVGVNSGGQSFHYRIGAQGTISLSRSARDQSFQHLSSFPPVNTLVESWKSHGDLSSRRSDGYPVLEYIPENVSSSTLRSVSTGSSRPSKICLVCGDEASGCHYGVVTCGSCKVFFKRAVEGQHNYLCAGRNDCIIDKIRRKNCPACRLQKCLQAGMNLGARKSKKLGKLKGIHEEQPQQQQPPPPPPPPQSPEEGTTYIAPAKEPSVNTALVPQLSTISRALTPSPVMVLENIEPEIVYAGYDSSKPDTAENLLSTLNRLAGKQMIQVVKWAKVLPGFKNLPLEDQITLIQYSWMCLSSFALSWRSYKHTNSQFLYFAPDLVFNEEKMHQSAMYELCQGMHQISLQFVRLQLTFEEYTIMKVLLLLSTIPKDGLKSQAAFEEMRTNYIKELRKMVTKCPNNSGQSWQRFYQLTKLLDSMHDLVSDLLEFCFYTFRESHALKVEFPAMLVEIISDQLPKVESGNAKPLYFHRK

Androgen receptor = Androgen receptor (Homo sapiens, UniProt P10275); experiment: Activation of Gal-DBD and NHRLBD fused AR (unknown origin) transfected in African green monkey CV-1 cells by luciferase reporter assay; assay type: cell-based
Chain of Androgen receptor (P10275 whole entry, the tested form may be a part): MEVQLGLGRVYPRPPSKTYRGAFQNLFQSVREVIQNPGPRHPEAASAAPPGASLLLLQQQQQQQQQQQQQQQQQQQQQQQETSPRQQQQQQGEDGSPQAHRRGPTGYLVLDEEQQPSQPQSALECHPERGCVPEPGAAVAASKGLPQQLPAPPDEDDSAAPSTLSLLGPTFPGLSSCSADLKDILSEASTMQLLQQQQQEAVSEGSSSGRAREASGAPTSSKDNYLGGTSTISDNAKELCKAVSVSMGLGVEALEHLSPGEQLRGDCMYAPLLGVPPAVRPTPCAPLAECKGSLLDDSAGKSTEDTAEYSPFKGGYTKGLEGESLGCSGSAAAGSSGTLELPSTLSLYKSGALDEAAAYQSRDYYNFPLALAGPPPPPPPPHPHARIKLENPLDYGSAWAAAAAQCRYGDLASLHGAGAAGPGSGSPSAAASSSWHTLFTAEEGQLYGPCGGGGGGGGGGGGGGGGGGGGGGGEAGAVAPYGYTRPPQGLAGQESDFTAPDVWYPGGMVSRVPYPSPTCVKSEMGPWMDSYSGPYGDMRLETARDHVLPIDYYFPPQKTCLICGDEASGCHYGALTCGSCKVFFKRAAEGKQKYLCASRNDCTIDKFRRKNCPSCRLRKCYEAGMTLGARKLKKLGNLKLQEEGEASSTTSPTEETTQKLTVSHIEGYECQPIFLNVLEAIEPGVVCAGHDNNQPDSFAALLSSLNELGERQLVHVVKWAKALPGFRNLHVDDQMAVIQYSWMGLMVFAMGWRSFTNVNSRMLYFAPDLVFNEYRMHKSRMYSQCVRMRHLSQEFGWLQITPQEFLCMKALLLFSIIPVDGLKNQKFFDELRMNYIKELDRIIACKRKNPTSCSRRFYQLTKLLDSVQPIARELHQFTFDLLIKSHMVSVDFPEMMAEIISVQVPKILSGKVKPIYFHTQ

[15] = Metabolic stability in Sprague-Dawley rat liver microsomes assessed as parent compound remaining incubated for 1 hr by LC-MS analysis; assay type: ADME, Microsome; conditions: read-out: Stability
[16] = Subacute toxicity in ICR mouse assessed as changes in serum BUN level at 500 mg/kg/day, po administered for 14 days; assay type: organism-based; conditions: in vivo, 336 h, time 14 day
[17] = molecular target: T2, Bile acid receptor (Mus musculus) (UniProt Q60641); experiment: Activation of FXR in C57BL/6 mouse ileum assessed as upregulation of FGF15 gene expression in ileum at 20 mg/kg, po administered for 5 days and measured after 1 hr post final dose by RT-PCR analysis; assay type: organism-based; conditions: filed as activator, time 5.0 day
T2 sequence (whole entry): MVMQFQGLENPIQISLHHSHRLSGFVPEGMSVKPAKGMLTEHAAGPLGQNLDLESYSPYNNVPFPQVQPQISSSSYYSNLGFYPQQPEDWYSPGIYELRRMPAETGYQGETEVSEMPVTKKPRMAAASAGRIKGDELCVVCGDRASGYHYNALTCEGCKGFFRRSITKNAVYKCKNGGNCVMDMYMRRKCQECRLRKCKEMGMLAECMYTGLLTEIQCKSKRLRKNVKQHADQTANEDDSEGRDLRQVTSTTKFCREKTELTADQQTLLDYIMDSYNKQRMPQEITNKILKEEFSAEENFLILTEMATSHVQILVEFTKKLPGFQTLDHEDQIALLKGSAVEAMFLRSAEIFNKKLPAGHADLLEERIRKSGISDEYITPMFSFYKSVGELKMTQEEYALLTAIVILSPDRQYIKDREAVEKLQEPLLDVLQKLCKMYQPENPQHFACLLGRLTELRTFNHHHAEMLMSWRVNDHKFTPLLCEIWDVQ

[18] = molecular target: Retinoic acid receptor alpha (Homo sapiens, UniProt P10276); experiment: Activation of Gal-DBD and NHRLBD fused RARalpha (unknown origin) transfected in African green monkey CV-1 cells by luciferase reporter assay; assay type: cell-based
Chain of Retinoic acid receptor alpha (P10276 whole entry, the tested form may be a part): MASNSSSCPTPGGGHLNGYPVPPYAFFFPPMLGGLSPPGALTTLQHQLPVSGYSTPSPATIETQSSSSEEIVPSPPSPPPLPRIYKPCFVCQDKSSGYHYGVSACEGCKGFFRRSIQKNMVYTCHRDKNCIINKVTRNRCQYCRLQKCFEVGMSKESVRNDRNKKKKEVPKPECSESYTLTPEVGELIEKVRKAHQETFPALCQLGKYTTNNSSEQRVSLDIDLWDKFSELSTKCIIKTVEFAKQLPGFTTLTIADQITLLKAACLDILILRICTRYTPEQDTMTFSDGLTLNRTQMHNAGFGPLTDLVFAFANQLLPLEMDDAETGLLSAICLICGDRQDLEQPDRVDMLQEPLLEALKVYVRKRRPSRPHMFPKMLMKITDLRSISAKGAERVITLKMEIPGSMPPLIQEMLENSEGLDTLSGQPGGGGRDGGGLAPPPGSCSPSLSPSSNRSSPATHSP

[19] = Agonist activity at PPARbeta/delta (unknown origin) transfected in HepG2 cells incubated for 18 hrs by renilla/firefly based dual-glo luciferase assay; assay type: cell-based; conditions: Homo sapiens, HepG2, 18 h
[20] = molecular target: G-protein coupled bile acid receptor 1 (Homo sapiens, UniProt Q8TDU6); experiment: Activation of TGR5 (unknown origin) transfected in human NCI-H716 cells assessed as increase in cAMP production incubated for 24 hrs by HTR-FRET assay; assay type: functional, cell-based
Chain of G-protein coupled bile acid receptor 1 (Q8TDU6 whole entry, the tested form may be a part): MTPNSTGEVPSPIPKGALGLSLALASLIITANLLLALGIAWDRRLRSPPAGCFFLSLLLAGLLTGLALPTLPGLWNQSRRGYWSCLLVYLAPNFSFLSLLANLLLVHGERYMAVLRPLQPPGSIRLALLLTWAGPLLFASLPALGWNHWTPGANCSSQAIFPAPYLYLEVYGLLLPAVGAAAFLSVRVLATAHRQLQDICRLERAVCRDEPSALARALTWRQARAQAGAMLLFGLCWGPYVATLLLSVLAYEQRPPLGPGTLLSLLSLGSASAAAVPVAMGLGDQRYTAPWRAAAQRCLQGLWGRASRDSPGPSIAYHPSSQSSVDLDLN

Estrogen receptor = Estrogen receptor (Homo sapiens, UniProt P03372); experiment: Activation of Gal-DBD and NHRLBD fused ERalpha (unknown origin) transfected in African green monkey CV-1 cells by luciferase reporter assay; assay type: cell-based
Chain of Estrogen receptor (P03372 whole entry, the tested form may be a part): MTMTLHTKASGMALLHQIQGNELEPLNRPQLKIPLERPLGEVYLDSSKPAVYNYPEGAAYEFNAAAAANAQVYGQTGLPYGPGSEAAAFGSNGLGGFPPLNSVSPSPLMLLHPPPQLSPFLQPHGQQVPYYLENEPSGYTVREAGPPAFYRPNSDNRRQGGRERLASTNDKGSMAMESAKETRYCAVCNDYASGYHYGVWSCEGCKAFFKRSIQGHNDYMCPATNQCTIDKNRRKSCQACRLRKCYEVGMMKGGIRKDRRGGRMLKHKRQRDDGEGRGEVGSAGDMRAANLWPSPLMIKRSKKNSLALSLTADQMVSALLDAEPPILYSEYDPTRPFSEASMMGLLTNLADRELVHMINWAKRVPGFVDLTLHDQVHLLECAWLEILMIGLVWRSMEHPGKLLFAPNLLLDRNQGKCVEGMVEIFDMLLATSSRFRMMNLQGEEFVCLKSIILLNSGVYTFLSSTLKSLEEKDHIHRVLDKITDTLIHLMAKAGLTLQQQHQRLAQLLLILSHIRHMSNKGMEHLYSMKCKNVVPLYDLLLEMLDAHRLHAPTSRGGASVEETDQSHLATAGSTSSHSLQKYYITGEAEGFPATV

[21] = molecular target: T2, Bile acid receptor (Mus musculus); experiment: Activation of FXR in C57BL/6 mouse ileum assessed as upregulation of SHP gene expression at 20 mg/kg, po administered for 5 days and measured after 1 hr post final dose by RT-PCR analysis; assay type: organism-based; conditions: filed as activator, time 5.0 day

For `O=C(O)C1(c2cccc(-c3ccc(OCc4c(-c5c(Cl)cccc5Cl)noc4C4CC4)cc3)c2)CC1`, the pEC50 (Progesterone receptor) was under 5.00, the Activity [1] was “Non-Toxic” and the Activity [2] was “Non-Toxic”. For the same molecule, the Activity (Mus musculus [3]) was “Active”, the Activity [4] was “Non-Toxic” and the Activity (Mus musculus [5]) was “Active”. The Activity (Mus musculus [6]) was “Active”, the pIC50 [7] was under 5.00 and the Activity (Mus musculus [8]) was “Active”. The Activity [9] was “Non-Toxic”, the pEC50 [10] was under 5.00 and the remaining at 1 h [11] was 71%. For the same molecule, the pIC50 [12] was under 5.00, the pEC50 [13] was under 5.00 and the pEC50 [14] was under 5.00. The pEC50 (Androgen receptor) was under 5.00, the remaining at 1 h [15] was 68.6% and the Activity [16] was “Non-Toxic”. The Activity [17] was “Active”, the pEC50 [18] was under 5.00 and the pEC50 [19] was under 5.00. The pEC50 [20] was under 5.00, the pEC50 (Estrogen receptor) was under 5.00 and the Activity [21] was “Active”.
